Key:
[1] = molecular target: T1, P. falciparum nicotinamidase (PfNic) (Plasmodium falciparum, UniProt O97284); assay: […]-nicotinamide to nicotinic acid conversion (HPLC, scintillation counting) in lysates of parasites pre-treated with […] compound for […] h; assay type: cell-based
T1 construct: gene PF3D7_0320500
T1 sequence (O97284 1-429): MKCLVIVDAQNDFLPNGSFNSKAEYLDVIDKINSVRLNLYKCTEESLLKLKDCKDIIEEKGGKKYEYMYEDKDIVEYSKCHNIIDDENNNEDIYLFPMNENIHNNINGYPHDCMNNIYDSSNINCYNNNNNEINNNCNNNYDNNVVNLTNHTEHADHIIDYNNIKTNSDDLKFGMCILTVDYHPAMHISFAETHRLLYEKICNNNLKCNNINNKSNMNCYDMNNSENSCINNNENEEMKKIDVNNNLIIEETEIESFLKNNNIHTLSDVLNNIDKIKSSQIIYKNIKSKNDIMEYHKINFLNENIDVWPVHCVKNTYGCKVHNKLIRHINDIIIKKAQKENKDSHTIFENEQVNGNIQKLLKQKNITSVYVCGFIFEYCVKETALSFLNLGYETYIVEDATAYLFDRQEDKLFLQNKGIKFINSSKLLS

purified protein = substrate: NC(=O)c1cccnc1; assay: purified protein; assay type: biochemical, Plasmodium falciparum

Molecule	14C-nicotinamide to nicotinic acid conversion (HPLC, scintillation counting) in [1]	Km (purified protein) [µM]
Cc1cncc(C=O)c1 [5-methyl-nicotinaldehyde]	indicating 5-Me-nicotinaldehyhde was able to inhibit P. falciparum nicotinamidase in the lysate	
P. falciparum nicotinamidase (PfNic) (Plasmodium falciparum 3D7) (protein, 429 amino acids, N-terminal histidine tag (pet28a), expressed in Rosetta (DE3) E. coli) MKCLVIVDAQNDFLPNGSFNSKAEYLDVIDKINSVRLNLYKCTEESLLKLKDCKDIIEEKGGKKYEYMYEDKDIVEYSKCHNIIDDENNNEDIYLFPMNENIHNNINGYPHDCMNNIYDSSNINCYNNNNNEINNNCNNNYDNNVVNLTNHTEHADHIIDYNNIKTNSDDLKFGMCILTVDYHPAMHISFAETHRLLYEKICNNNLKCNNINNKSNMNCYDMNNSENSCINNNENEEMKKIDVNNNLIIEETEIESFLKNNNIHTLSDVLNNIDKIKSSQIIYKNIKSKNDIMEYHKINFLNENIDVWPVHCVKNTYGCKVHNKLIRHINDIIIKKAQKENKDSHTIFENEQVNGNIQKLLKQKNITSVYVCGFIFEYCVKETALSFLNLGYETYIVEDATAYLFDRQEDKLFLQNKGIKFINSSKLLS		3.0 ± 0.9

— paper PMC9405955, “Plasmodium falciparum Nicotinamidase as A Novel Antimalarial Target” (Biomolecules, 2022)
